Literature values as cited in US12379360B2, “Detection system for an electronic nose allowing a physicochemical classification of odours and electronic nose comprising such a system” (COMMISSARIAT À L'ÉNERGIE ATOMIQUE ET AUX ÉNERGIES …, priority 2019, dated 2025).

Columns and labels:
[1] = pure compound
[2] = n-octanol/water partition coefficient
[3] = scale of R. M. Sweet and D. Eisenberg, reference [4]

CSC [DMS, dimethylsulphide]
n (refractive index) [1]: 1.4487
logP [2]: 2.7

CCCSCCC [DPS, dipropylsulphide]
n (refractive index) [1]: 1.435
logP [2]: 0.9

NCCCCCN [DAP, 1,5-diaminopentane]
n (refractive index) [1]: 1.458
logP [2]: −0.6

CCCCCN [n-PA, n-pentylamine]
n (refractive index) [1]: 1.411
logP [2]: 1.5

NC(=O)C[C@H](N)C(=O)O [asparagine]
hydrophobicity index [3]: −0.74

CN(C)C [TMA, trimethylamine]
n (refractive index) [1]: 1.3631
logP [2]: 0.3

NCCCCN [DAB, 1,4-diaminobutane]
n (refractive index) [1]: 1.457
logP [2]: −0.9

O=C(O)[C@@H]1CCCN1 [proline]
hydrophobicity index [3]: 0.12

CCN(CC)CC [TEA, triethylamine]
n (refractive index) [1]: 1.401
logP [2]: 1.4
